Drawing on patent publication US7544690B2, “MCH receptor antagonists” (Taisho Pharmaceutical Co., Ltd., priority 2001, dated 2009), this text covers IC50 for two compounds.

The target in this assay is T1, non-endogenous version of the MCH receptor (MCH-IC3-SST2) (Homo sapiens, UniProt Q99705, A240I/A242V/I247R/L249K/M235V/P241R/Q244S/R234K/R245S/R248K/R250S/R253K/S243G/S246K/T236K/T251E/V239G).
T1 construct: creating a MCH-IC3-SST2 mutation (see); expressed in transfected cells; cultured with 0.5 mg/ml G418, so I infer a stably transfected line
T1 sequence (Q99705 1-353 with the stated changes): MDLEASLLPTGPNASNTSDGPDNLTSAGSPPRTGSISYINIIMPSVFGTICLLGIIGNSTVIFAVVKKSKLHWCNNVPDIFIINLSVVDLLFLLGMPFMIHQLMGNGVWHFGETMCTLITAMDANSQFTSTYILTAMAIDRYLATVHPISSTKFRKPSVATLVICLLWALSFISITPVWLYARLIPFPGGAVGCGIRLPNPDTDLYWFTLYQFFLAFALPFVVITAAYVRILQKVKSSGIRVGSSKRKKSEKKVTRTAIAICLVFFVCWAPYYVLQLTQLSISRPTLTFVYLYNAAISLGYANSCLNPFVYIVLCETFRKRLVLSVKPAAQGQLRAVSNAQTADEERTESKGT
The experiment in a line: FLIPR/FDSS6000 functional assay: intracellular Ca2+ changes evoked by MCH. The format is cell-based. The following applies: antagonist activity; 50 nM of MCH; transient changes in [Ca2+]i monitored by FLIPR or FDSS. From the text: Subsequently, a functional based assay was used to confirm the lead hits, referred to as FLIPR™ (the Fluorometric Imaging Plate Reader) and FDSS6000™ (Functional Drug Screening System). This assay utilized a non-endogenous version of the MCH receptor, which was created by swapping the third intracellular loop of the MCH receptor with that of the SST2 receptor (see Example 2(B)(2) of patent application Ser. No. 09/826,509).
The FLIPR and FDSS assays are able to detect intracellular Ca^2+ concentration in cells, which can be utilized to assess receptor activation and determine whether a candidate compound is an, for example, antagonist, inverse agonist or agonist to a Gq-coupled receptor. The concentration of free Ca^2+ in the cytosol of any cell is extremely low, whereas its concentration in the extracellular fluid and endoplasmic reticulum (ER) is very high. Thus, there is a large gradient tending to drive Ca^2+ into the cytosol across both the plasma membrane and ER. […]
To confirm the lead hits identified using the [^35S]GTPγS assay, Fluorometric Imaging Plate Reader system was used to allow for rapid, kinetic measurements of intracellular fluorescence in 96 well microplates (or 384 well microplates). Simultaneous measurements of fluorescence in all wells can be made by FLIPR or FDSS6000™, every second with high sensitivity and precision. […]

Molecules are shown by their SMILES. Structures can show the parent of a compound that is named as a salt.

For orientation: IC50 means the concentration needed to halve the response being measured. On to `CN(C)c1nc(N[C@H]2CC[C@@H](CNCc3ccc(Br)cc3OC(F)(F)F)CC2)nc2ccccc12` [Example 41, cis-N^2-{4-[(4-Bromo-2-trifluoromethoxy-benzylamino)-methyl]-cyclohexyl}-N^4,N^4-dimethyl-quinazoline-2,4-diamine dihydrochloride], for which the midpoint of inhibition, the IC50, lay at 0.006 µM.
For the compound `CN(C)c1nc(N[C@H]2CC[C@@H](CNCc3ccccc3OC(F)(F)F)CC2)nc2ccccc12` [Example 42, cis-N^4,N^4-Dimethyl-N^2-{4-[(2-trifluoromethoxy-benzylamino)-methyl]-cyclohexyl}-quinazoline-2,4-diamine dihydrochloride], it took 0.019 µM to reach half-maximal inhibition (IC50).
